Active and inactive are the calls of the source. The rule behind the calls is not given here.
Assays:
[1] = Inhibition of Influenza A virus H5N1 neuraminidase; design: species or system H5N1 subtype
[2] = test system: H5N1 subtype; experiment: Antiviral activity against Influenza A virus H5N1 (A/chicken/Hubei/327/2004(H5N1)) infected in dog MDCK cells assessed as inhibition of virus replication by plaque reduction assay; assay type: functional, organism-based
[3] = Cytotoxicity against dog MDCK cells assessed as decrease in cell viability by CCK8 assay; assay type: cell-based, Canis lupus familiaris
[4] = Selectivity index, ratio of CC50 for cytotoxicity against dog MDCK cells to EC50 for antiviral activity against Influenza A virus (A/chicken/Hubei/327/2004(H5N1)) infected in dog MDCK cells; assay type: toxicity, cell-based; conditions: read-out: Ratio CC50/EC50
[5] = test system: H5N1 subtype; experiment: Potency index, ratio of oseltamivir carboxylate IC50 to test compound IC50 for inhibition of Influenza A virus H5N1 neuraminidase
[6] = test system: A549; experiment: Antiviral activity against Influenza A virus H5N1 infected in human A549 cells assessed as inhibition of viral replication by TCID50 assay; assay type: functional, cell-based; conditions: H5N1 subtype

Compound	IC50 [1]	also measured
CCOC(=O)c1c(NC(=O)COc2cccc3ncccc23)sc(C(=O)OC)c1C	40 nM	
CCOC(=O)c1c(NC(=O)COc2ccc3ncccc3c2)sc(C(=O)OC)c1C	30 nM	EC50 [2]: 1590 nM; CC50 [3]: > 800000 nM; selectivity ratio [4]: > 500; Ratio IC50 [5]: 2; Activity [6]: Active
CCOC(=O)c1c(NC(=O)COc2ccc(C=O)cc2OCC)sc(C(=O)OC)c1C	70 nM	
CCOC(=O)c1c(NC(=O)COc2ccc(NC(C)=O)cc2)sc(C(=O)OC)c1C	50 nM	
CCOC(=O)c1c(NC(=O)COc2cccc(C=O)c2)sc(C(=O)OC)c1C	5650 nM	
CCOC(=O)c1c(NC(=O)COc2cccc(C(C)=O)c2)sc(C(=O)OC)c1C	4770 nM	
CCOC(=O)c1c(NC(=O)COc2ccc(C=O)cc2)sc(C(=O)OC)c1C	8860 nM	
CCOC(=O)c1c(NC(=O)COc2ccc(C=O)cc2OC)sc(C(=O)OC)c1C	4390 nM	
CCOC(=O)c1c(NC(=O)COc2cc(Br)ccc2OC)sc(C(=O)OC)c1C	240 nM	
CCOC(=O)c1c(NC(=O)COc2ccccn2)sc(C(=O)OC)c1C	960 nM	

Reference: ChEMBL document CHEMBL4828742, “Discovery of novel thiophene derivatives as potent neuraminidase inhibitors” (Eur J Med Chem, 2021)
